Data published in the NIST ThermoML archive (doi:10.1016/j.jct.2017.05.001).

Assay: wn = mass fraction of the nth substance listed
Settings: Liquid; for mass density: Vibrating tube method

OCCN(CCO)CCO [triethanolamine] + O
viscosity [mPa·s]
Settings	w1 = 0.0992	w1 = 0.1	w1 = 0.2	w1 = 0.2991	w1 = 0.3	w1 = 0.4
293.15 K, 100 kPa, Concentric cylinders viscometry	–	1.41	2.066	–	3.197	5.34
293.15 K, 100 kPa, Falling or rolling sphere viscometry	1.429	–	2.037	3.208	–	5.317
293.15 K, 5000 kPa, Falling or rolling sphere viscometry	1.459	–	2.036	3.212	–	5.311
293.15 K, 10000 kPa, Falling or rolling sphere viscometry	1.455	–	2.035	3.229	–	5.331
293.15 K, 15000 kPa, Falling or rolling sphere viscometry	1.454	–	2.04	3.18	–	5.376
293.15 K, 20000 kPa, Falling or rolling sphere viscometry	1.45	–	2.042	3.234	–	5.417
293.15 K, 25000 kPa, Falling or rolling sphere viscometry	1.447	–	2.044	3.242	–	5.445
293.15 K, 30000 kPa, Falling or rolling sphere viscometry	1.446	–	2.046	3.245	–	5.5
293.15 K, 40000 kPa, Falling or rolling sphere viscometry	1.443	–	2.051	3.288	–	5.549
293.15 K, 60000 kPa, Falling or rolling sphere viscometry	1.44	–	2.064	3.325	–	5.675
293.15 K, 80000 kPa, Falling or rolling sphere viscometry	1.447	–	2.08	3.373	–	5.792
293.15 K, 100000 kPa, Falling or rolling sphere viscometry	1.448	–	2.098	3.446	–	5.987
313.15 K, 100 kPa, Concentric cylinders viscometry	–	0.881	1.244	–	1.786	2.756
313.15 K, 100 kPa, Falling or rolling sphere viscometry	0.909	–	1.203	1.786	–	2.788
313.15 K, 5000 kPa, Falling or rolling sphere viscometry	0.8937	–	1.208	1.797	–	2.794
313.15 K, 10000 kPa, Falling or rolling sphere viscometry	0.8956	–	1.21	1.808	–	2.797
313.15 K, 15000 kPa, Falling or rolling sphere viscometry	0.8964	–	1.214	1.818	–	2.828
313.15 K, 20000 kPa, Falling or rolling sphere viscometry	0.8965	–	1.22	1.832	–	2.852
313.15 K, 25000 kPa, Falling or rolling sphere viscometry	0.8977	–	1.225	1.835	–	2.866
313.15 K, 30000 kPa, Falling or rolling sphere viscometry	0.8992	–	1.228	1.846	–	2.889
313.15 K, 40000 kPa, Falling or rolling sphere viscometry	0.9027	–	1.231	1.861	–	2.928
313.15 K, 60000 kPa, Falling or rolling sphere viscometry	0.91	–	1.251	1.893	–	3.028
313.15 K, 80000 kPa, Falling or rolling sphere viscometry	0.9177	–	1.276	1.933	–	3.115
313.15 K, 100000 kPa, Falling or rolling sphere viscometry	0.9261	–	1.282	1.98	–	3.193
333.15 K, 100 kPa, Concentric cylinders viscometry	–	0.621	0.821	–	1.173	1.669
333.15 K, 100 kPa, Falling or rolling sphere viscometry	0.6124	–	0.8083	1.147	–	1.67
333.15 K, 5000 kPa, Falling or rolling sphere viscometry	0.6114	–	0.8084	1.154	–	1.68
333.15 K, 10000 kPa, Falling or rolling sphere viscometry	0.6149	–	0.8125	1.164	–	1.698
333.15 K, 15000 kPa, Falling or rolling sphere viscometry	0.6154	–	0.8177	1.168	–	1.704
333.15 K, 20000 kPa, Falling or rolling sphere viscometry	0.6178	–	0.82	1.178	–	1.72
333.15 K, 25000 kPa, Falling or rolling sphere viscometry	0.6198	–	0.8238	1.181	–	1.738
333.15 K, 30000 kPa, Falling or rolling sphere viscometry	0.6221	–	0.8283	1.189	–	1.748
333.15 K, 40000 kPa, Falling or rolling sphere viscometry	0.625	–	0.8329	1.203	–	1.771
333.15 K, 60000 kPa, Falling or rolling sphere viscometry	0.6327	–	0.8473	1.225	–	1.826
333.15 K, 80000 kPa, Falling or rolling sphere viscometry	0.6418	–	0.8631	1.253	–	1.878
333.15 K, 100000 kPa, Falling or rolling sphere viscometry	0.6513	–	0.8789	1.293	–	1.964

mass density [kg/m3]
Settings	w1 = 0.0992	w1 = 0.2	w1 = 0.2991	w1 = 0.4
293.15 K, 100 kPa	1013.3	1029.5	1046.1	1065.2
293.15 K, 500 kPa	1013.5	1029.5	1046.2	1065.3
293.15 K, 1000 kPa	1013.7	1029.7	1046.4	1065.4
293.15 K, 2000 kPa	1014.2	1030.2	1046.8	1065.8
293.15 K, 5000 kPa	1015.5	1031.4	1047.9	1066.9
293.15 K, 10000 kPa	1017.6	1033.4	1049.8	1068.7
293.15 K, 15000 kPa	1019.6	1035.4	1051.7	1070.5
293.15 K, 20000 kPa	1021.8	1037.4	1053.7	1072.3
293.15 K, 30000 kPa	1026	1041.4	1057.4	1075.8
293.15 K, 40000 kPa	1030	1045.2	1061.1	1079.3
293.15 K, 50000 kPa	1034	1049	1064.7	1082.7
293.15 K, 60000 kPa	1037.9	1052.7	1068.3	1086.1
293.15 K, 70000 kPa	1041.8	1056.4	1071.8	1089.4
293.15 K, 80000 kPa	1045.5	1059.8	1075.1	1092.5
293.15 K, 90000 kPa	1049.1	1063.4	1078.5	1095.8
293.15 K, 100000 kPa	1052.9	1066.9	1081.8	1098.9
293.15 K, 110000 kPa	1056.3	1070.2	1084.9	1101.8
293.15 K, 120000 kPa	1059.8	1073.6	1088.2	1104.9
293.15 K, 130000 kPa	1063.3	1077	1091.5	1107.9
293.15 K, 140000 kPa	1066.5	1080.1	1094.5	1110.8
313.15 K, 100 kPa	1006.9	1021.9	1037.4	1055.1
313.15 K, 500 kPa	1007	1022.1	1037.5	1055.3
313.15 K, 1000 kPa	1007.2	1022.3	1037.7	1055.4
313.15 K, 2000 kPa	1007.6	1022.7	1038.1	1055.8
313.15 K, 5000 kPa	1008.9	1023.9	1039.3	1056.9
313.15 K, 10000 kPa	1010.9	1025.9	1041.2	1058.8
313.15 K, 15000 kPa	1013	1027.8	1043.1	1060.6
313.15 K, 20000 kPa	1015	1029.7	1045	1062.4
313.15 K, 30000 kPa	1019.1	1033.7	1048.8	1066
313.15 K, 40000 kPa	1023	1037.6	1052.6	1069.7
313.15 K, 50000 kPa	1026.8	1041.2	1056.1	1073.2
313.15 K, 60000 kPa	1030.7	1044.9	1059.7	1076.6
313.15 K, 70000 kPa	1034.4	1048.5	1063.2	1079.9
313.15 K, 80000 kPa	1038	1051.9	1066.6	1083.1
313.15 K, 90000 kPa	1041.6	1055.3	1069.9	1086.3
313.15 K, 100000 kPa	1045.2	1058.8	1073.3	1089.5
313.15 K, 110000 kPa	1048.6	1062.1	1076.4	1092.7
313.15 K, 120000 kPa	1052	1065.6	1079.6	1095.7
313.15 K, 130000 kPa	1055.3	1068.7	1082.8	1098.7
313.15 K, 140000 kPa	1058.5	1071.9	1085.9	1101.7
333.15 K, 100 kPa	997.2	1011.6	1026.3	1043.1
333.15 K, 500 kPa	997.5	1011.8	1026.5	1043.3
333.15 K, 1000 kPa	997.7	1012	1026.7	1043.5
333.15 K, 2000 kPa	998.1	1012.4	1027.2	1043.9
333.15 K, 5000 kPa	999.3	1013.6	1028.3	1045.1
333.15 K, 10000 kPa	1001.4	1015.7	1030.4	1047.1
333.15 K, 15000 kPa	1003.5	1017.7	1032.4	1049
333.15 K, 20000 kPa	1005.5	1019.7	1034.3	1050.9
333.15 K, 30000 kPa	1009.6	1023.6	1038.2	1054.7
333.15 K, 40000 kPa	1013.6	1027.7	1042.1	1058.4
333.15 K, 50000 kPa	1017.5	1031.4	1045.7	1062
333.15 K, 60000 kPa	1021.3	1035	1049.4	1065.6
333.15 K, 70000 kPa	1024.8	1038.6	1052.9	1069
333.15 K, 80000 kPa	1028.6	1042.1	1056.3	1072.3
333.15 K, 90000 kPa	1032	1045.6	1059.7	1075.5
333.15 K, 100000 kPa	1035.6	1049.1	1063.2	1078.9
333.15 K, 110000 kPa	1039	1052.3	1066.3	1082
333.15 K, 120000 kPa	1042.5	1055.8	1069.8	1085.3
